From US20170165286A1, “COMPOSITIONS AND METHODS FOR TREATING DIABETES AND LIVER DISEASES” (Cempra Pharmaceuticals, Inc., priority 2014, published 2017)
Entries after “also recorded” stand apart in the source; their conditions may differ.

Legend:
STAM mice [1] = assay: STAM model: whole blood and plasma biochemistry; assay type: in vivo; settings: for Whole Blood Glucose Levels: non-fasting, 5-9 wks
Protocol: (§1) NASH-HCC (STAM™) Model. C57BL/6 (15-day-pregnant female) mice are obtained from Charles River Laboratories Japan (Kanagawa, Japan). Male pups are selected for the study. NASH is induced in male mice by a single subcutaneous injection of 200 μg streptozotocin (STZ, Sigma-Aldrich, USA) solution 2 days after birth, followed by feeding a HFD (57 kcal % fat, cat#: HFD32, CLEA Japan, Japan) beginning at 4 weeks of age. At 5 weeks of age, mice are divided into a control group and one or more treated group (generally 8 mice per group). Animals are sacrificed at 9 weeks of age, and biochemical, histological, and gene expression analyses are performed.
(§2) During weeks 5-9 (starting at day 35±2), test compound is administered (generally orally) at various doses diluted to 10 mL/kg and according to various dosing protocols to treatment groups (8 mice each) while a second group (8 mice) is administered vehicle only. Animals are sacrificed at 9 weeks.
Measurement of whole blood and plasma biochemistry. Non-fasting blood glucose was measured in whole blood using LIFE CHECK (EIDIA, Japan). For plasma biochemistry, blood was collected in polypropylene tubes with anticoagulant (Novo-Heparin, Mochida Pharmaceutical, Japan) and centrifuged at 1,000×g for 15 minutes at 4° C. The supernatant was collected and stored at −80° C. until use. Plasma ALT levels were measured by FUJI DRI-CHEM 7000 (Fujifilm, Japan). Plasma insulin, MIF and IL-22 were quantified by Ultra Sensitive Mouse Insulin ELISA Kit (Morinaga Institute of Biological science, Japan), Mouse Macrophage Migration Inhibitory Factor (MIF) ELISA (Kamiya Biomedical, USA), Quantikine ELISA Mouse/Rat IL-22 Immunoassay kit (R&D Systems, USA), respectively.
(§3) Illustrative dose response test groups. Group 1-Normal. Eight normal mice are fed with a normal diet ad libitum without any treatment until 9 weeks of age. Group 2-Vehicle. Eight NASH mice are orally administered vehicle (0.5% w/v methylcellulose+0.2% Tween®80) in a volume of 10 mL/kg twice daily from 5 to 9 week of age. Group 3-solithromycin 5 mg/kg. Eight NASH mice are orally administered vehicle supplemented with solithromycin at a dose of 5 mg/kg in the morning and the vehicle in the evening (5 mg/kg/day) from 5 to 9 weeks of age. Group 4-solithromycin 10 mg/kg. Eight NASH mice are orally administered vehicle supplemented with solithromycin at a dose of 10 mg/kg twice daily (20 mg/kg/day) from 5 to 9 weeks of age. Group 5-solithromycin 25 mg/kg. Eight NASH mice are orally administered vehicle supplemented with solithromycin at a dose of 25 mg/kg twice daily (50 mg/kg/day) from 5 to 9 weeks of age. Group 6-solithromycin 50 mg/kg. Eight NASH mice are orally administered vehicle supplemented with solithromycin at a dose of 50 mg/kg once daily (50 mg/kg/day) from 5 to 9 weeks of age.

STAM mice [2] = assay: STAM model: serum biochemistry (HPLC); assay type: in vivo
Protocol: as §1, §2
Measurement of serum biochemistry. For serum biochemistry, blood is collected in polypropylene tubes without anticoagulant and incubated at room temperature for 30 minutes, at 4° C. for 1 hour, and then centrifuged at 1,000×g for 15 minutes at 4° C. The supernatant is collected and stored at −80° C. until use. Serum triglyceride, HDL-cholesterol, LDL-cholesterol, VLDL-cholesterol, and chylomicron ([…]) are quantified by HPLC at Skylight Biotech Inc. (Japan).
as §3

[3] = 5 mg/kg q.d., listed as SOLI, 5 mg/kg
[4] = 10 mg/kg b.i.d., listed as SOLI, 10 mg/kg
[5] = 25 mg/kg b.i.d., listed as SOLI, 25 mg/kg

Compound: CC[C@H]1OC(=O)[C@@](C)(F)C(=O)[C@H](C)[C@@H](O[C@@H]2O[C@H](C)C[C@H](N(C)C)[C@H]2O)[C@](C)(OC)C[C@@H](C)C(=O)[C@H](C)[C@H]2N(CCCCn3cc(-c4cccc(N)c4)nn3)C(=O)O[C@]12C [solithromycin]
- Plasma ALT (STAM mice [1]; 5 mg/kg q.d.): 52 ± 78 U/L
- Plasma IL-22 (STAM mice [1]; 5 mg/kg q.d.): 31.8 ± 1.6 pg/mL
- Plasma insulin (STAM mice [1]; 5 mg/kg q.d.): 0.25 ± 0.10 ng/mL
- Plasma MIF (STAM mice [1]; 5 mg/kg q.d., 5 mg/kg): no statistically significant differences
- Plasma MIF (STAM mice [1]; [3]): 4665 ± 2131 pg/mL
- Plasma ALT (STAM mice [1]; 10 mg/kg b.i.d.): 31 ± 19 U/L
- Plasma IL-22 (STAM mice [1]; 10 mg/kg b.i.d.): 33.0 ± 5.0 pg/mL
- Plasma insulin (STAM mice [1]; 10 mg/kg b.i.d.): 0.41 ± 0.35 ng/mL
- Plasma MIF (STAM mice [1]; 10 mg/kg b.i.d., 10 mg/kg): no statistically significant differences
- Plasma MIF (STAM mice [1]; [4]): 4852 ± 1720 pg/mL
- Plasma ALT (STAM mice [1]; 25 mg/kg b.i.d.): 34 ± 14 U/L
- Plasma IL-22 (STAM mice [1]; 25 mg/kg b.i.d.): 33.8 ± 7.2 pg/mL
- Plasma insulin (STAM mice [1]; 25 mg/kg b.i.d.): 0.41 ± 0.22 ng/mL
- Plasma MIF (STAM mice [1]; 25 mg/kg b.i.d., 25 mg/kg): significantly increased
- Plasma MIF (STAM mice [1]; [5]): 11748 ± 7633 pg/mL
- Plasma IL-22 levels compared to vehicle group (STAM mice [1]; any doses): no statistically significant differences
- Plasma insulin levels compared to vehicle group (STAM mice [1]; any doses): no statistically significant differences; also recorded: not significantly affected
- Plasma ALT levels compared to vehicle group (STAM mice [1]; any doses (Groups 3-6)): no significant differences
- Whole Blood Glucose Levels (STAM mice [1]; 5 mg/kg q.d. oral, 5 mg/kg): no statistically significant differences
- Whole Blood Glucose Levels (STAM mice [1]; 5 mg/kg q.d. oral, listed as SOLI, 5 mg/kg): 726 ± 101 mg/dL
- Whole Blood Glucose Levels (STAM mice [1]; 5 mg/kg q.d. oral, listed as Solithromycin, 5 mg/kg): 726 ± 101 mg/dL
- Whole Blood Glucose Levels (STAM mice [1]; 10 mg/kg b.i.d. oral, 10 mg/kg): no statistically significant differences
- Whole Blood Glucose Levels (STAM mice [1]; 10 mg/kg b.i.d. oral, listed as SOLI, 10 mg/kg): 713 ± 172 mg/dL
- Whole Blood Glucose Levels (STAM mice [1]; 10 mg/kg b.i.d. oral, listed as Solithromycin, 10 mg/kg): 713 ± 172 mg/dL
- Whole Blood Glucose Levels (STAM mice [1]; 25 mg/kg b.i.d. oral, 25 mg/kg): Statistically significant blood glucose decrease
- Whole Blood Glucose Levels (STAM mice [1]; 25 mg/kg b.i.d. oral, listed as SOLI, 25 mg/kg): 497 ± 259 mg/dL
- Whole Blood Glucose Levels (STAM mice [1]; 25 mg/kg b.i.d. oral, listed as Solithromycin, 25 mg/kg): 497 ± 259 mg/dL
- Whole Blood Glucose Levels (STAM mice [1]; 50 mg/kg q.d. oral, 50 mg/kg): Statistically significant blood glucose decrease
- Whole Blood Glucose Levels (STAM mice [1]; 50 mg/kg q.d. oral, listed as Solithromycin, 50 mg/kg): 380 ± 170 mg/dL
- Serum HDL-cholesterol (STAM mice [2]; 5 mg/kg q.d., 5 mg/kg): no statistically significant differences
- Serum VLDL-cholesterol (STAM mice [2]; 5 mg/kg q.d., 5 mg/kg): no statistically significant differences
- Serum chylomicron (STAM mice [2]; 5 mg/kg q.d., 5 mg/kg): no statistically significant differences
- Serum triglyceride (STAM mice [2]; 5 mg/kg q.d., 5 mg/kg): no statistically significant differences
- Serum HDL-cholesterol (STAM mice [2]; [3]): 88.4 ± 14.2 mg/dL
- Serum VLDL-cholesterol (STAM mice [2]; [3]): 9.8 ± 5.3 mg/dL
- Serum chylomicron (STAM mice [2]; [3]): 1.5 ± 1.2 mg/dL
- Serum triglyceride (STAM mice [2]; [3]): 133.8 ± 110.1 mg/dL
- Serum HDL-cholesterol (STAM mice [2]; 10 mg/kg b.i.d., 10 mg/kg): no statistically significant differences
- Serum VLDL-cholesterol (STAM mice [2]; 10 mg/kg b.i.d., 10 mg/kg): no statistically significant differences
- Serum chylomicron (STAM mice [2]; 10 mg/kg b.i.d., 10 mg/kg): no statistically significant differences
- Serum triglyceride (STAM mice [2]; 10 mg/kg b.i.d., 10 mg/kg): no statistically significant differences
- Serum HDL-cholesterol (STAM mice [2]; [4]): 89.3 ± 21.5 mg/dL
- Serum VLDL-cholesterol (STAM mice [2]; [4]): 9.7 ± 3.8 mg/dL
- Serum chylomicron (STAM mice [2]; [4]): 1.4 ± 0.6 mg/dL
- Serum triglyceride (STAM mice [2]; [4]): 116.5 ± 58.8 mg/dL
- Serum HDL-cholesterol (STAM mice [2]; 25 mg/kg b.i.d., 25 mg/kg): no statistically significant differences
- Serum VLDL-cholesterol (STAM mice [2]; 25 mg/kg b.i.d., 25 mg/kg): significantly decreased; also recorded: Statistically significant reduced
- Serum chylomicron (STAM mice [2]; 25 mg/kg b.i.d., 25 mg/kg): significantly decreased
- Serum triglyceride (STAM mice [2]; 25 mg/kg b.i.d., 25 mg/kg): significantly decreased; also recorded: Statistically significant reduced
- Serum HDL-cholesterol (STAM mice [2]; [5]): 97.9 ± 26.3 mg/dL
- Serum VLDL-cholesterol (STAM mice [2]; [5]): 5.4 ± 3.2 mg/dL
- Serum chylomicron (STAM mice [2]; [5]): 0.7 ± 0.4 mg/dL
- Serum triglyceride (STAM mice [2]; [5]): 46.8 ± 47.8 mg/dL
